# Experimental data as given in ChEMBL document CHEMBL5726080, “Substituted piperidine compounds and their use as orexin receptor modulators” (2017).
# Experiment: Receptor Radioligand Binding Studies: Human Embryonic Kidney 293 cells (HEK293) stably expressing rat orexin 1 receptor (Genebank accession number NM_001525) or Chinese ovary cells (CHO) stably expressing […] were grown to confluency in DMEM (Hyclone, cat #SH30022), 10% FBS, 1×Pen/Strep, 1× sodium pyruvate, 10 mM HEPES, 600 μg/mL G418 and DMEM/F12 (Gibco, Cat #11039), 10% FBS, 1×Pen/Strep, 600 μg/mL G418 media, respectively on 150 cm2 tissue culture plates, washed with 5 mM EDTA in PBS (HyClone Dulbecco's Phosphate Buffered Saline 1× with Calcium and Magnesium, Cat #SH30264.01, hereafter referred to simply as PBS) and scraped into 50 ml tubes. After centrifugation (2K×G, 5 min at 4° C.), the supernatant was aspirated and the pellets frozen and stored at −80° C. Cells were resuspended in PBS in the presence of 1 tablet of protease inhibitor cocktail (Roche, Cat. #11836145001) per 50 mL. Each cell pellet from a 15 cm plate was resuspended in 10 mL, stored on ice, and homogenized for 45 sec prior to addition to the reactions. Competition binding experiments in 96 well polypropylene plates were performed using [3H]-(1-(5-(2-fluoro-phenyl)-2-methyl-thiazol-4-yl)-1-((S)-2-(5-phenyl-(1,3,4)oxadiazol-2-ylmethyl)-pyrrolidin-1-yl)-methanone) (Moraveck Corporation, specific activity=35.3 Ci/mmol), diluted to a 10 nM concentration in PBS (4 nM final). Compounds were solubilized in 100% DMSO (Acros Organics, Cat. #61042-1000) and tested over a range of 7 concentrations (from 0.1 nM to 10 μM). The final concentration of DMSO in the reactions is equal to or less than 0.1%. Total and nonspecific binding was determined in the absence and presence of 10 μM almorexant. The total volume of each reaction is 200 μL (20 μL of diluted compounds, 80 μL of [3H]-(1-(5-(2-fluoro-phenyl)-2-methyl-thiazol-4-yl)-1-((S)-2-(5-phenyl-(1,3,4)oxadiazol-2-ylmethyl)-pyrrolidin-1-yl)-methanone) diluted in PBS and 100 μL of the cell suspension). Reactions were run for 60 min at room temperature and terminated by filtration through GF/C filter plates (PerkinElmer, Cat. #6005174) presoaked in 0.3% polyethylenimine using the cell harvester (PerkinElmer Filtermate). The plates were washed 3 times by aspirating 30 ml PBS through the plates. Plates were dried in 55° C. oven for 60 min, scintillation fluid was added, and the radioactivity was counted on a Topcount (Packard).
row,SMILES,Ki [µM]
1,Cc1ccc(C(=O)N2CCC[C@@H](Nc3nnc(C(F)(F)F)s3)[C@@H]2C)c(-n2nccn2)n1 (relative stereo),> 10
2,COc1ccc(C(=O)N2CCC[C@@H](Nc3ccc(C(F)(F)F)cn3)[C@@H]2C)c(Cl)n1 (relative stereo),> 10
3,Cc1ccc(C(=O)N2CCC[C@@H](N(C)c3ccc(C(F)(F)F)cn3)[C@@H]2C)c(-n2nccn2)n1 (relative stereo),> 10
4,COc1ccc(C(=O)N2CCC[C@@H](Nc3ncc(C(F)(F)F)cn3)[C@@H]2C)c(Cl)n1 (relative stereo),> 10
